The assay concerns the target T1, MAGL (recombinant wild-type) (Homo sapiens, UniProt Q99685).
T1 sequence (Q99685 1-303): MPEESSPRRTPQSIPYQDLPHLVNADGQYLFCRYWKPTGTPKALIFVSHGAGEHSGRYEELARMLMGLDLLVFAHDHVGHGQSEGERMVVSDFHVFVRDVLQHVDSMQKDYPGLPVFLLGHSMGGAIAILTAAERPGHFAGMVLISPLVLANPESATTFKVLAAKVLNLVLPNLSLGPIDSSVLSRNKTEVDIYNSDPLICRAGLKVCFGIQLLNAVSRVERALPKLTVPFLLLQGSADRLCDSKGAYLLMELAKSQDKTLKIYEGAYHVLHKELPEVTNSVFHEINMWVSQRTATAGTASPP
Nature of the assay: 4-NPA assay: MAGL inhibitory activity by hydrolysis of 4-nitrophenylacetate, absorbance at 405 nm. The format is biochemical. Conditions: 4-NPA assay (values without footnote [b]). The protocol:
Compounds were profiled for MAGL inhibitory activity by measuring the enzymatic activity of MAGL by following the hydrolysis of 4-nitrophenylacetate resulting in 4-nitrophenol, which absorbs at 405-412 nm (G. G. Muccioli, G. Labar, D. M. Lambert, Chem. Bio. Chem. 2008, 9, 2704-2710). This assay is hereinafter abbreviated “4-NPA assay”.
The assay was carried out in 384 well assay plates (black with clear bottom, non-binding surface treated, Corning Ref. 3655) in a total volume of 40 μL. Compound dilutions were made in 100% DMSO (VWR Chemicals 23500.297) in a polypropylene plate in 3-fold dilution steps to give a final concentration range in the assay from 25 μM to 1.7 nM. 1 μL compound dilutions (100% DMSO) were added to 19 μL MAGL (recombinant wild-type) in assay buffer (50 mM TRIS (GIBCO, 15567-027), 1 mM EDTA (Fluka, 03690-100 mL)). The plate was shaked for 1 min at 2000 rpm (Variomag Teleshake) and then incubated for 15 min at RT. To start the reaction, 20 μL 4-Nitrophenlyacetate (Sigma N-8130) in assay buffer with 6% EtOH was added. The final concentrations in the assay were 1 nM MAGL and 300 μM 4-Nitrophenylacetate. After shaking (1 min, 2000 rpm) and 5 min incubation at RT, the absorbance at 405 nm was measured for a first time (Molecular Devices, SpectraMax Paradigm). A second measurement was then done after incubation for 80 min at RT. From the two measurements, the slope was calculated by subtracting the first from the second measurement.
Usually IC50 stands for the midpoint of a concentration-inhibition curve. `CC(C)(C)n1cnc(-c2ccc(C(=O)N3CCN(c4nc5nc(Cl)ccc5o4)CC3)cc2)n1` [Example 41, [4-(1-tert-butyl-1,2,4-triazol-3-yl)phenyl]-[4-(5-chlorooxazolo[4,5-b]pyridin-2-yl)piperazin-1-yl]methanone]: the IC50 was determined as 29 nM. Regarding `Cc1ccc2oc(N3CCN(C(=O)c4ccc(-c5ncn(C(C)(C)C)n5)cc4)CC3)nc2n1` [Example 42, [4-(1-tert-butyl-1,2,4-triazol-3-yl)phenyl]-[4-(5-methyloxazolo[4,5-b]pyridin-2-yl)piperazin-1-yl]methanone], the IC50 turned out to be 86 nM. For the compound `CC(C)(C)Cn1cc(-c2ccc(C(=O)N3CCN(c4nc5nc(Cl)ccc5o4)CC3)cc2)nn1` [Example 43, [4-(5-chlorooxazolo[4,5-b]pyridin-2-yl)piperazin-1-yl]-[4-[1-(2,2-dimethylpropyl)triazol-4-yl]phenyl]methanone], the IC50 worked out at 6 nM.

For `CC(C)(C)Cn1ncc(-c2ccc(C(=O)N3CCN(c4nc5nc(Cl)ccc5o4)CC3)cc2)n1` [Example 44, [4-(5-chlorooxazolo[4,5-b]pyridin-2-yl)piperazin-1-yl]-[4-[2-(2,2-dimethylpropyl)triazol-4-yl]phenyl]methanone], the IC50 was found to be 3 nM. As to `CC1CN(c2nc3nc(Cl)ccc3o2)CCN1C(=O)c1ccc(-c2noc(C(C)(C)C)n2)cc1` (stereo not drawn) [Example 45, [4-(5-tert-butyl-1,2,4-oxadiazol-3-yl)phenyl]-[4-(5-chlorooxazolo[4,5-b]pyridin-2-yl)-2-methyl-piperazin-1-yl]methanone], the IC50 turned out to be 72 nM. To `CC1CN(C(=O)c2ccc(-c3noc(C(C)(C)C)n3)cc2)CCN1c1nc2nc(Cl)ccc2o1` (stereo not drawn) [Example 46, [4-(5-tert-butyl-1,2,4-oxadiazol-3-yl)phenyl]-[4-(5-chlorooxazolo[4,5-b]pyridin-2-yl)-3-methyl-piperazin-1-yl]methanone] belongs 28 nM; to `Cc1ccc2oc(N3CCN(C(=O)c4ccc(-c5cnn(C(C)(C)C)c5)cc4)CC3)nc2n1` [Example 47, [4-(1-tert-butylpyrazol-4-yl)phenyl]-[4-(5-methyloxazolo[4,5-b]pyridin-2-yl)piperazin-1-yl]methanone], 37 nM. With `CC(C)(C)n1cc(-c2ccc(C(=O)N3CCN(c4nc5nc(Cl)ccc5o4)CC3)cc2)cn1` [Example 48, [4-(1-tert-butylpyrazol-4-yl)phenyl]-[4-(5-chlorooxazolo[4,5-b]pyridin-2-yl)piperazin-1-yl]methanone], the IC50 was 15 nM. Regarding `CC1(Cn2cnc(-c3ccc(C(=O)N4CCN(c5nc6nc(Cl)ccc6o5)CC4)cc3)n2)CC1` [Example 49, [4-(5-chlorooxazolo[4,5-b]pyridin-2-yl)piperazin-1-yl]-[4-[1-[(1-methylcyclopropyl)methyl]-1,2,4-triazol-3-yl]phenyl]methanone], the IC50 turned out to be 13 nM.

On to `CC1(Cn2ncnc2-c2ccc(C(=O)N3CCN(c4nc5nc(Cl)ccc5o4)CC3)cc2)CC1` [Example 50, [4-(5-chlorooxazolo[4,5-b]pyridin-2-yl)piperazin-1-yl]-[4-[2-[(1-methylcyclopropyl)methyl]-1,2,4-triazol-3-yl]phenyl]methanone], for which the IC50 was 4230 nM. As to `Cc1ccc2oc(N3CCN(C(=O)c4ccc(-c5noc(C6(C)CC6)n5)cc4)CC3)nc2n1` [Example 51, [4-[5-(1-methylcyclopropyl)-1,2,4-oxadiazol-3-yl]phenyl]-[4-(5-methyloxazolo[4,5-b]pyridin-2-yl)piperazin-1-yl]methanone], the 50% inhibitory concentration (IC50) amounted to 67 nM.

As for `CC(C)(C)c1cnn(-c2ccc(C(=O)N3CCN(c4nc5nc(Cl)ccc5o4)CC3)cc2)c1` [Example 52, [4-(4-tert-butylpyrazol-1-yl)phenyl]-[4-(5-chlorooxazolo[4,5-b]pyridin-2-yl)piperazin-1-yl]methanone], the IC50 stood at 5 nM. On to `Cc1ccc2oc(N3CCN(C(=O)c4ccc(-n5cc(C(C)(C)C)cn5)cc4)CC3)nc2n1` [Example 53, [4-(4-tert-butylpyrazol-1-yl)phenyl]-[4-(5-methyloxazolo[4,5-b]pyridin-2-yl)piperazin-1-yl]methanone], for which the half-inhibitory concentration (IC50) amounted to 12 nM. The figure for `Cc1ccc2oc(N3CCN(C(=O)c4ccc(-c5cnn(CC(C)(C)C)c5)cc4)CC3)nc2n1` [Example 54, [4-[1-(2,2-dimethylpropyl)pyrazol-4-yl]phenyl]-[4-(5-methyloxazolo[4,5-b]pyridin-2-yl)piperazin-1-yl]methanone] is 6 nM; for `Cc1ccc2oc(N3CCN(C(=O)c4ccc(-n5cnc(C(C)(C)C)c5)cc4)CC3)nc2n1` [Example 55, [4-(4-tert-butylimidazol-1-yl)phenyl]-[4-(5-methyloxazolo[4,5-b]pyridin-2-yl)piperazin-1-yl]methanone] it is 63 nM; for `Cc1ccc2oc(N3CCN(C(=O)c4ccc(-c5noc(C(C)(C)C)n5)c(C)c4)CC3)nc2n1` [Example 56, [4-(5-tert-butyl-1,2,4-oxadiazol-3-yl)-3-methyl-phenyl]-[4-(5-methyloxazolo[4,5-b]pyridin-2-yl)piperazin-1-yl]methanone] it is 11 nM.

Regarding `Cc1cc(C(=O)N2CCN(c3nc4nc(Cl)ccc4o3)CC2)ccc1-c1noc(C(C)(C)C)n1` [Example 57, [4-(5-tert-butyl-1,2,4-oxadiazol-3-yl)-3-methyl-phenyl]-[4-(5-chlorooxazolo[4,5-b]pyridin-2-yl)piperazin-1-yl]methanone], the IC50 was 5 nM. For the compound `Cc1ccc2oc(N3CCN(C(=O)c4ccc(-c5noc(C(C)(C)C)n5)c(F)c4)CC3)nc2n1` [Example 58, [4-(5-tert-butyl-1,2,4-oxadiazol-3-yl)-3-fluoro-phenyl]-[4-(5-methyloxazolo[4,5-b]pyridin-2-yl)piperazin-1-yl]methanone], the IC50 came out at 43 nM. The figure for `CC(C)(C)c1nc(-c2ccc(C(=O)N3CCN(c4nc5nc(Cl)ccc5o4)CC3)cc2F)no1` [Example 59, [4-(5-tert-butyl-1,2,4-oxadiazol-3-yl)-3-fluoro-phenyl]-[4-(5-chlorooxazolo[4,5-b]pyridin-2-yl)piperazin-1-yl]methanone] is 15 nM. Take `CC1(COc2ccc(C(=O)N3CCN(c4nc5nc(Cl)ccc5o4)CC3)cc2Cl)CC1` [Example 60, [3-chloro-4-[(1-methylcyclopropyl)methoxy]phenyl]-[4-(5-chlorooxazolo[4,5-b]pyridin-2-yl)piperazin-1-yl]methanone]: the IC50 is 46 nM.

Take `CC(C)(C)c1nc(-c2ccc(C(=O)N3CCN(c4nc5nc(Cl)ccc5o4)CC3)cn2)no1` [Example 61, [6-(5-tert-butyl-1,2,4-oxadiazol-3-yl)-3-pyridyl]-[4-(5-chlorooxazolo[4,5-b]pyridin-2-yl)piperazin-1-yl]methanone]: the IC50 is 272 nM. For `Cc1ccc2oc(N3CCN(C(=O)c4ccc(-c5noc(C(C)(C)C)n5)nc4)CC3)nc2n1` [Example 62, [6-(5-tert-butyl-1,2,4-oxadiazol-3-yl)-3-pyridyl]-[4-(5-methyloxazolo[4,5-b]pyridin-2-yl)piperazin-1-yl]methanone], the IC50 stood at 871 nM. To `CC(C)(C)c1cn(-c2ccc(C(=O)N3CCN(c4nc5nc(Cl)ccc5o4)CC3)cc2)cn1` [Example 63, [4-(4-tert-butylimidazol-1-yl)phenyl]-[4-(5-chlorooxazolo[4,5-b]pyridin-2-yl)piperazin-1-yl]methanone] belongs 20 nM. Regarding `Cc1cc(C(=O)N2CCN(c3nc4nc(Cl)ccc4o3)CC2)ccc1OCC(C)(C)C` [Example 64, [4-(5-chlorooxazolo[4,5-b]pyridin-2-yl)piperazin-1-yl]-[4-(2,2-dimethylpropoxy)-3-methyl-phenyl]methanone], the IC50 came to 5 nM. Take `Cc1ccc2oc(N3CCN(C(=O)c4ccc(OCC(C)(C)C)c(C)c4)CC3)nc2n1` [Example 65, [4-(2,2-dimethylpropoxy)-3-methyl-phenyl]-[4-(5-methyloxazolo[4,5-b]pyridin-2-yl)piperazin-1-yl]methanone]: the IC50 amounted to 11 nM. With `Cc1ccc2oc(N3CCN(C(=O)c4ccc(OCC5(C)CC5)c(Cl)c4)CC3)nc2n1` [Example 66, [3-chloro-4-[(1-methylcyclopropyl)methoxy]phenyl]-[4-(5-methyloxazolo[4,5-b]pyridin-2-yl)piperazin-1-yl]methanone], the IC50 was found to be 87 nM. `Cc1ccc2oc(N3CCN(C(=O)c4ccc(C5(C)COC5)cc4)CC3)nc2n1` [Example 67, (4-(5-methyloxazolo[4,5-b]pyridin-2-yl)piperazin-1-yl)(4-(3-methyloxetan-3-yl)phenyl)methanone]: the IC50 amounted to 367 nM.

The values are drawn from patent US20220135591A1, “HETEROCYCLIC COMPOUNDS AS INHIBITORS OF MONOACYLGLYCEROL LIPASE (MAGL)” (Hoffmann-La Roche Inc., priority 2019, published 2022).
